Test results published in ChEMBL document CHEMBL3232804, “Synthesis and evaluation of new diaryl ether and quinoline hybrids as potential antiplasmodial and antimicrobial agents” (Bioorg Med Chem Lett, 2014).
Values after ≈ are worked out from the molar mass of the structure shown.

How the values were obtained:
Sporothrix schenckii = assay: Antifungal activity against Sporothrix schenckii clinical isolate after 72 to 96 hrs by standard broth microdilution method; assay type: functional
Aspergillus fumigatus = assay: Antifungal activity against Aspergillus fumigatus clinical isolate after 72 to 96 hrs by standard broth microdilution method; assay type: functional
Pseudomonas aeruginosa = assay: Antimicrobial activity against Pseudomonas aeruginosa ATCC BAA-427 after 24 hrs by standard broth microdilution method; assay type: functional; settings: ATCC BAA-427, 24 h
Plasmodium falciparum [1] = assay: Antiplasmodial activity against chloroquine-sensitive Plasmodium falciparum 3D7 infected after 72 hrs by Malaria SYBR Green I-staining based fluorescence assay; assay type: functional, organism-based; settings: 3D7, 72 h
Escherichia coli = assay: Antimicrobial activity against Escherichia coli ATCC 9637 after 24 hrs by standard broth microdilution method; assay type: functional; settings: ATCC 9637, 24 h
Klebsiella pneumoniae = assay: Antimicrobial activity against Klebsiella pneumoniae ATCC 27736 after 24 hrs by standard broth microdilution method; assay type: functional; settings: ATCC 27736, 24 h
Plasmodium falciparum [2] = assay: Antiplasmodial activity against chloroquine-resistant Plasmodium falciparum K1 infected after 72 hrs by Malaria SYBR Green I-staining based fluorescence assay; assay type: functional, organism-based; settings: K1, 72 h
[3] = test system: Trichophyton mentagrophytes; assay: Antifungal activity against Trichophyton mentagrophytes clinical isolate after 72 to 96 hrs by standard broth microdilution method; assay type: functional
Candida albicans = assay: Antifungal activity against Candida albicans clinical isolate after 24 to 48 hrs by standard broth microdilution method; assay type: functional
Staphylococcus aureus = assay: Antimicrobial activity against Staphylococcus aureus ATCC 25923 after 24 hrs by standard broth microdilution method; assay type: functional; settings: ATCC 25923, 24 h
Cryptococcus neoformans = assay: Antifungal activity against Cryptococcus neoformans clinical isolate after 24 to 48 hrs by standard broth microdilution method; assay type: functional
Candida parapsilosis = assay: Antifungal activity against Candida parapsilosis ATCC […] after 72 to 96 hrs by standard broth microdilution method; assay type: functional; settings: Lodderomyces parapsilosis
[4] = Selectivity index, ratio of IC50 for african green monkey Vero cells to IC50 for chloroquine-sensitive Plasmodium falciparum 3D7; assay type: toxicity, cell-based; settings: read-out: Ratio IC50

Structure (SMILES)	MIC (Sporothrix schenckii)	MIC (Aspergillus fumigatus)	MIC (Pseudomonas aeruginosa)	IC50 (Plasmodium falciparum [1])	MIC (Escherichia coli)	MIC (Klebsiella pneumoniae)	IC50 (Plasmodium falciparum [2])	MIC [3]	MIC (Candida albicans)	MIC (Staphylococcus aureus)	MIC (Cryptococcus neoformans)	MIC (Candida parapsilosis)	selectivity ratio [4]
COC(=O)/C(C)=C/c1ccc(Oc2ccc(N/C(=N/c3ccc(Cl)cc3)NCCCNc3ccnc4cc(Cl)ccc34)cc2)cc1	6.25 mg/L (≈ 9.55 µM)	50 mg/L (≈ 76.4 µM)	> 50 mg/L	0.0385 µM	12.5 mg/L (≈ 19.1 µM)	50 mg/L (≈ 76.4 µM)	0.198 µM	12.5 mg/L (≈ 19.1 µM)	12.5 mg/L (≈ 19.1 µM)	12.5 mg/L (≈ 19.1 µM)	12.5 mg/L (≈ 19.1 µM)	12.5 mg/L (≈ 19.1 µM)	100
Clc1ccc(/N=C(\NCCCCNc2ccnc3cc(Cl)ccc23)Nc2ccccc2Oc2cc(Cl)ccc2Cl)cc1	> 50 mg/L	> 50 mg/L	> 50 mg/L	0.653 µM	> 50 mg/L	> 50 mg/L	0.151 µM	> 50 mg/L	> 50 mg/L	> 50 mg/L	> 50 mg/L	> 50 mg/L	11
COc1ccc(Oc2ccccc2N/C(=N/c2cccc(Cl)c2)NCCNc2ccnc3cc(Cl)ccc23)cc1	> 50 mg/L	12.5 mg/L (≈ 21.8 µM)	> 50 mg/L	0.0434 µM	6.25 mg/L (≈ 10.9 µM)	12.5 mg/L (≈ 21.8 µM)	0.201 µM	12.5 mg/L (≈ 21.8 µM)	6.25 mg/L (≈ 10.9 µM)	6.25 mg/L (≈ 10.9 µM)	12.5 mg/L (≈ 21.8 µM)	> 50 mg/L	208
Clc1cccc(/N=C(\NCCNc2ccnc3cc(Cl)ccc23)Nc2ccccc2Oc2cc(Cl)ccc2Cl)c1	50 mg/L (≈ 81.8 µM)	> 50 mg/L	> 50 mg/L	0.0696 µM	6.25 mg/L (≈ 10.2 µM)	> 50 mg/L	0.422 µM	50 mg/L (≈ 81.8 µM)	50 mg/L (≈ 81.8 µM)	1.56 mg/L (≈ 2.55 µM)	> 50 mg/L	50 mg/L (≈ 81.8 µM)	56.2
Clc1ccc(Cl)c(Oc2ccc(N/C(=N/c3ccccc3)NCCNc3ccnc4cc(Cl)ccc34)cc2)c1	3.12 mg/L (≈ 5.41 µM)	12.5 mg/L (≈ 21.7 µM)	> 50 mg/L	0.0395 µM	6.25 mg/L (≈ 10.8 µM)	> 50 mg/L	> 0.866 µM	6.25 mg/L (≈ 10.8 µM)	3.12 mg/L (≈ 5.41 µM)	12.5 mg/L (≈ 21.7 µM)	6.25 mg/L (≈ 10.8 µM)	3.12 mg/L (≈ 5.41 µM)	109
COC(=O)/C(C)=C/c1ccc(Oc2ccccc2N/C(=N/c2cccc(Cl)c2)NCCCNc2ccnc3cc(Cl)ccc23)cc1	50 mg/L (≈ 76.4 µM)	> 50 mg/L	> 50 mg/L	0.0203 µM	6.25 mg/L (≈ 9.55 µM)	3.12 mg/L (≈ 4.77 µM)	0.292 µM	50 mg/L (≈ 76.4 µM)	50 mg/L (≈ 76.4 µM)	3.12 mg/L (≈ 4.77 µM)	> 50 mg/L	> 50 mg/L	368
COc1ccc(Oc2ccc(N/C(=N/c3ccc(Cl)cc3)NCCCCNc3ccnc4cc(Cl)ccc34)cc2)cc1	12.5 mg/L (≈ 20.8 µM)	25 mg/L (≈ 41.6 µM)	> 50 mg/L	0.0337 µM	6.25 mg/L (≈ 10.4 µM)	25 mg/L (≈ 41.6 µM)	0.138 µM	12.5 mg/L (≈ 20.8 µM)	25 mg/L (≈ 41.6 µM)	6.25 mg/L (≈ 10.4 µM)	25 mg/L (≈ 41.6 µM)	6.25 mg/L (≈ 10.4 µM)	88.7
COC(=O)/C(C)=C/c1ccc(Oc2ccc(N/C(=N/c3ccc(Cl)cc3)NCCCCNc3ccnc4cc(Cl)ccc34)cc2)cc1	6.25 mg/L (≈ 9.35 µM)	50 mg/L (≈ 74.8 µM)	> 50 mg/L	0.0564 µM	25 mg/L (≈ 37.4 µM)	50 mg/L (≈ 74.8 µM)	0.716 µM	12.5 mg/L (≈ 18.7 µM)	6.25 mg/L (≈ 9.35 µM)	12.5 mg/L (≈ 18.7 µM)	6.25 mg/L (≈ 9.35 µM)	12.5 mg/L (≈ 18.7 µM)	145
COC(=O)/C(C)=C/c1ccc(Oc2ccc(N/C(=N/c3cccc(Cl)c3)NCCCNc3ccnc4cc(Cl)ccc34)cc2)cc1	50 mg/L (≈ 76.4 µM)	> 50 mg/L	> 50 mg/L	0.0782 µM	6.25 mg/L (≈ 9.55 µM)	50 mg/L (≈ 76.4 µM)	0.0714 µM	50 mg/L (≈ 76.4 µM)	> 50 mg/L	6.25 mg/L (≈ 9.55 µM)	> 50 mg/L	50 mg/L (≈ 76.4 µM)	21.9
COC(=O)/C(C)=C/c1ccc(Oc2ccccc2N/C(=N/c2ccc(Cl)cc2)NCCCCNc2ccnc3cc(Cl)ccc23)cc1	6.25 mg/L (≈ 9.35 µM)	> 50 mg/L	> 50 mg/L	0.0968 µM	12.5 mg/L (≈ 18.7 µM)	> 50 mg/L	0.0412 µM	6.25 mg/L (≈ 9.35 µM)	50 mg/L (≈ 74.8 µM)	1.56 mg/L (≈ 2.33 µM)	50 mg/L (≈ 74.8 µM)	> 50 mg/L	102
COC(=O)/C(C)=C/c1ccc(Oc2ccccc2N/C(=N/c2cccc(Cl)c2)NCCNc2ccnc3cc(Cl)ccc23)cc1	25 mg/L (≈ 39 µM)	50 mg/L (≈ 78.1 µM)	> 50 mg/L	0.0349 µM	50 mg/L (≈ 78.1 µM)	3.12 mg/L (≈ 4.87 µM)	0.489 µM	25 mg/L (≈ 39 µM)	25 mg/L (≈ 39 µM)	3.12 mg/L (≈ 4.87 µM)	25 mg/L (≈ 39 µM)	25 mg/L (≈ 39 µM)	234
